Measured values published in ChEMBL document CHEMBL1201862, “PubChem BioAssay data set” (2004).
The source made the active and inactive calls.

Tests used:
[1] = molecular target: Voltage-dependent T-type calcium channel subunit alpha-1H (Homo sapiens, UniProt O95180); type: functional;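 note: channel activity triggered by adding a high calcium stimulation buffer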
cells [2] = type: functional
[3] = cytotoxicity toward DRD oncogenic fibroblasts, dose response, cell-based, non-viral oncogenic, luminescence (AID 1934); type: functional; details: Homo sapiens
BJ [4] = assay: cytotoxicity toward BJ-TERT-LT-ST fibroblasts, dose response, cell-based, RAS-independent, luminescence (AID 1935); type: functional; details: Homo sapiens;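 note: BJ fibroblasts immortalized with TERT plus LT and ST oncogenes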
BJ [5] = assay: cells; type: functional, cell-based; details: Homo sapiens
BJ [6] = assay: cytotoxicity toward BJ-TERT fibroblasts, dose response, cell-based, RAS-independent, luminescence (AID 1933); type: functional; details: Homo sapiens
[7] = growth suppression of beta-catenin-knockout colon cells, dose response, cell-based, HCT116, human colon tumor (AID 1045); type: functional;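 note: HCT116 colon tumor cells with beta catenin knocked out; cells exposed to compound for 60 hours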
[8] = growth suppression of PTEN-null colon cells, dose response, cell-based, HCT116 PTEN knockout (AID 1047); type: functional;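 note: HCT116 colon tumor cells with PTEN knocked out; cells exposed to compound for 60 hours before readout; potency for loss of cell viability measured by luminescence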
[9] = HEp-2 cell cytotoxicity, dose response, cytotoxicity control for RSV inhibitor project, HTS (AID 2410); type: functional; details: human respiratory syncytial virus
[10] = microbe, parasite or virus in culture; type: functional; details: Mycobacterium tuberculosis
[11] = Shn3 3'UTR reporter inhibitors, dose response, cell-based, Clone20 osteoblasts, firefly luciferase, cherry-picked (AID 624132); type: functional;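 note: firefly luciferase luminescence from reporter carrying the Shn3 3'UTR in osteoblasts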
Vero = assay: cells; type: functional; details: Chlorocebus sabaeus
[12] = control 3'UTR Renilla luciferase suppression, dose response, counter-screen for Shn3 inhibitor project, cell-based, Clone20-Shn3RL, cherry-picked (AID 624133); type: functional
[13] = HepG2 cell cytotoxicity, dose response, cytotoxicity control for Shn3 inhibitor project, CellTiter-Glo, cherry-picked (AID 624134); type: functional, cell-based
[14] = molecular target: T1, Lysine-specific demethylase 4C (Homo sapiens, UniProt Q9H3R0); assay: GASC-1 (JMJD2C) histone demethylase inhibitors, dose response, biochemical, DELFIA europium, cherry-picked samples (AID 488835); type: functional
T1 sequence (Q9H3R0 whole entry): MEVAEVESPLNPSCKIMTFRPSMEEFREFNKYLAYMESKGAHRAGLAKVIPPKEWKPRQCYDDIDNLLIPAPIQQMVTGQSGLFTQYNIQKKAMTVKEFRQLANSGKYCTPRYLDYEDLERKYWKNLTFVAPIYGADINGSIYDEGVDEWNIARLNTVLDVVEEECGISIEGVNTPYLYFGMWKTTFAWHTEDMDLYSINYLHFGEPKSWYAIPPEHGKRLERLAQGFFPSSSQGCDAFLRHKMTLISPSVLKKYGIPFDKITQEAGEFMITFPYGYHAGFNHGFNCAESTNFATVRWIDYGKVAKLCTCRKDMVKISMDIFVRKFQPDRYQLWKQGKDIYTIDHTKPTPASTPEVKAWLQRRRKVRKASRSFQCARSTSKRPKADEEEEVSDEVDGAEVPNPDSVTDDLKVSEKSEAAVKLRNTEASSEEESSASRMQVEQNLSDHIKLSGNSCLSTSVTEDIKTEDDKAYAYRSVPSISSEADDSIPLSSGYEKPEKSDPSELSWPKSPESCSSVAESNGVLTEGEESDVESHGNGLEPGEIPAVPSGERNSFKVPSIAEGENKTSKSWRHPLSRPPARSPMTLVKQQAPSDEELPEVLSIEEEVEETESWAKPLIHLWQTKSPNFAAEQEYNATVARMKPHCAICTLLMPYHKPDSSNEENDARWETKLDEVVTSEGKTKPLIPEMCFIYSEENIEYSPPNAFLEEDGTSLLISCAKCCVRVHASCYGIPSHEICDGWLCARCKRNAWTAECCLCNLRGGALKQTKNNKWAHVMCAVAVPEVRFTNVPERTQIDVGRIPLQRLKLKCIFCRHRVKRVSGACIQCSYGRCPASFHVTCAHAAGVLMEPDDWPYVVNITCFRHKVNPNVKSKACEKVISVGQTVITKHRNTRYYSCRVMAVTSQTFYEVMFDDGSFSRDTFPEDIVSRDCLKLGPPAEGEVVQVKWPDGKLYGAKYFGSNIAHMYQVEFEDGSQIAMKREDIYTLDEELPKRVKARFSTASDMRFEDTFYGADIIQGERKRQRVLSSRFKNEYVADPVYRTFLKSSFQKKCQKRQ

Paired box protein Pax-8 = Paired box protein Pax-8 (Homo sapiens, UniProt Q06710); assay: inhibitors of PAX8-driven TPO luciferase reporter, dose response, RMG-I cells, cherry-pick (AID 687027); type: functional, cell-based;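 note: luciferase reporter driven by Pax8 target thyroperoxidase promoter measured by SteadyGlo luminescence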
[15] = HepG2 cell cytotoxicity, dose response, cytotoxicity control, cherry-picked samples (AID 1159577); type: functional, cell-based
[16] = P. falciparum Dd2 growth inhibitors, dose response, SYBR Green, cherry-picked samples (AID 1159567); type: functional, cell-based
cells [17] = type: functional, cell-based
cells [18] = type: functional, cell-based; remark: listed apart in the source
[19] = molecular target: Dual specificity tyrosine-phosphorylation-regulated kinase 1A (Rattus norvegicus, UniProt Q63470); type: biochemical, Homo sapiens
[20] = off-target signal loss in HeLa-CEM21 co-culture – HeLa F-luc CTL cells, cherry-picked, counter-screen for HIV-1 Env fusion inhibitor project, dose response (AID 652040); type: functional, cell-based;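 note: potency for signal decrease marking cytotoxic or nonspecific inhibition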
[21] = inhibitors of clade B AD8 Env fusion, dose response, cell-based, cherry-pick (AID 652062); type: functional;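 note: luciferase signal from cell-cell fusion driven by HIV-1 clade B AD8 Env; potency is for inhibitors of fusion seen as a drop in luminescence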
[22] = ZM109 Env clade C HIV-1 fusion inhibitors, dose response, HeLa effector, CEM target cells, luciferase, cherry-pick (AID 652058); type: functional, cell-based
[23] = inhibitors of HIV Env-driven cell fusion, dose response, cherry-pick (AID 652057); type: functional, cell-based
[24] = molecular target: T2, Ubiquitin-conjugating enzyme E2 N (Homo sapiens, UniProt P61088); type: functional;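 note: Dose-response confirmation in a TR-FRET assay detecting UBC13-driven polyubiquitin chain formation, inhibition measured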
T2 sequence (P61088 whole entry): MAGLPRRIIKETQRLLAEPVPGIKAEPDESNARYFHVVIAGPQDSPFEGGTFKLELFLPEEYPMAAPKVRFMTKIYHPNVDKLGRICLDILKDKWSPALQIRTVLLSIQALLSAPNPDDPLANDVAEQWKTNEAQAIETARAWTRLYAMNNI

[25] = Luminescence Cell-Based Dose Retest to Confirm Inhibitors of Cancer Stem Cells. [Related pubchem assays (depositor defined):AID2717, AID2721]; type: functional; details: Homo sapiens
[26] = molecular target: T3, Heat shock factor protein 1 (Mus musculus, UniProt P38532); assay: HSF1 potentiators in luciferase reporter cells, confirmation, cell-based, NIH3T3, luminescence, dose retest (AID 435004); type: functional;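 note: stress induced by proteasome inhibitor MG132 added 30 min after compound; luciferase reporter driven by HSF1 response element in NIH3T3 cells; actives raise luminescence as potentiators of the MG132 stress response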
T3 sequence (P38532 whole entry): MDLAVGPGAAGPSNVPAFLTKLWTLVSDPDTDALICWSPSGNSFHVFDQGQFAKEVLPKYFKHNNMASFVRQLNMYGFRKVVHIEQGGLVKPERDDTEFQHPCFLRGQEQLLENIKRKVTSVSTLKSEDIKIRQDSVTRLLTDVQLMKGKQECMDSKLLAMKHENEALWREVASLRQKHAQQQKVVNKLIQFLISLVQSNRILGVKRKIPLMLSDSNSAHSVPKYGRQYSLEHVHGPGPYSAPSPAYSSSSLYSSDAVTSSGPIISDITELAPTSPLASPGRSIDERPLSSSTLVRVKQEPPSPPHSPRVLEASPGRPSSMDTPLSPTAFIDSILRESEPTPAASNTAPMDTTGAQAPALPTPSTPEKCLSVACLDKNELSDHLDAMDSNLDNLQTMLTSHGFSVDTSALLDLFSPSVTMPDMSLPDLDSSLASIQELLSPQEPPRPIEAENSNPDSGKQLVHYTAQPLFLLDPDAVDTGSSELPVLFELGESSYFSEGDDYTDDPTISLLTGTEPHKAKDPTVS

[27] = inhibitors of SNCA 5'UTR-driven reporter translation, confirmation, H4 neuroglioma cells, luminescence (AID 1988); type: functional, cell-based
[28] = Luminescence Cell-Based Dose Response HTS to Identify Inhibitors of 5'UTR Stem-Loop Driven Prion Protein mRNA Translation in H4 Neuroglioblastoma Cells. [Related pubchem assays: 1827 (Project Summary), 1813 (Primary HTS)]; type: functional
[29] = inhibitors of firefly luciferase expression or activity, dose response, H4 neuroglioma cells, luminescence (AID 1990); type: functional, cell-based
Nonstructural protein 1 = Nonstructural protein 1 (Influenza A virus, UniProt Q194T2); type: functional, Influenza A virus (A/California/07/2009(H1N1))
Chain of Nonstructural protein 1 (Q194T2 whole entry): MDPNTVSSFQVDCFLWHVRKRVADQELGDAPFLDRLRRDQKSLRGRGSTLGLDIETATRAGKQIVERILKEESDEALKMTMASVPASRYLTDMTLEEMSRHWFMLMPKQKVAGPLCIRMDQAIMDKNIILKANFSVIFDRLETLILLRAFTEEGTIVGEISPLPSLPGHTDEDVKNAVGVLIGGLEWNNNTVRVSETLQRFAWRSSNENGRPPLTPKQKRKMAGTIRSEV

Chain of Voltage-dependent T-type calcium channel subunit alpha-1H (O95180 whole entry): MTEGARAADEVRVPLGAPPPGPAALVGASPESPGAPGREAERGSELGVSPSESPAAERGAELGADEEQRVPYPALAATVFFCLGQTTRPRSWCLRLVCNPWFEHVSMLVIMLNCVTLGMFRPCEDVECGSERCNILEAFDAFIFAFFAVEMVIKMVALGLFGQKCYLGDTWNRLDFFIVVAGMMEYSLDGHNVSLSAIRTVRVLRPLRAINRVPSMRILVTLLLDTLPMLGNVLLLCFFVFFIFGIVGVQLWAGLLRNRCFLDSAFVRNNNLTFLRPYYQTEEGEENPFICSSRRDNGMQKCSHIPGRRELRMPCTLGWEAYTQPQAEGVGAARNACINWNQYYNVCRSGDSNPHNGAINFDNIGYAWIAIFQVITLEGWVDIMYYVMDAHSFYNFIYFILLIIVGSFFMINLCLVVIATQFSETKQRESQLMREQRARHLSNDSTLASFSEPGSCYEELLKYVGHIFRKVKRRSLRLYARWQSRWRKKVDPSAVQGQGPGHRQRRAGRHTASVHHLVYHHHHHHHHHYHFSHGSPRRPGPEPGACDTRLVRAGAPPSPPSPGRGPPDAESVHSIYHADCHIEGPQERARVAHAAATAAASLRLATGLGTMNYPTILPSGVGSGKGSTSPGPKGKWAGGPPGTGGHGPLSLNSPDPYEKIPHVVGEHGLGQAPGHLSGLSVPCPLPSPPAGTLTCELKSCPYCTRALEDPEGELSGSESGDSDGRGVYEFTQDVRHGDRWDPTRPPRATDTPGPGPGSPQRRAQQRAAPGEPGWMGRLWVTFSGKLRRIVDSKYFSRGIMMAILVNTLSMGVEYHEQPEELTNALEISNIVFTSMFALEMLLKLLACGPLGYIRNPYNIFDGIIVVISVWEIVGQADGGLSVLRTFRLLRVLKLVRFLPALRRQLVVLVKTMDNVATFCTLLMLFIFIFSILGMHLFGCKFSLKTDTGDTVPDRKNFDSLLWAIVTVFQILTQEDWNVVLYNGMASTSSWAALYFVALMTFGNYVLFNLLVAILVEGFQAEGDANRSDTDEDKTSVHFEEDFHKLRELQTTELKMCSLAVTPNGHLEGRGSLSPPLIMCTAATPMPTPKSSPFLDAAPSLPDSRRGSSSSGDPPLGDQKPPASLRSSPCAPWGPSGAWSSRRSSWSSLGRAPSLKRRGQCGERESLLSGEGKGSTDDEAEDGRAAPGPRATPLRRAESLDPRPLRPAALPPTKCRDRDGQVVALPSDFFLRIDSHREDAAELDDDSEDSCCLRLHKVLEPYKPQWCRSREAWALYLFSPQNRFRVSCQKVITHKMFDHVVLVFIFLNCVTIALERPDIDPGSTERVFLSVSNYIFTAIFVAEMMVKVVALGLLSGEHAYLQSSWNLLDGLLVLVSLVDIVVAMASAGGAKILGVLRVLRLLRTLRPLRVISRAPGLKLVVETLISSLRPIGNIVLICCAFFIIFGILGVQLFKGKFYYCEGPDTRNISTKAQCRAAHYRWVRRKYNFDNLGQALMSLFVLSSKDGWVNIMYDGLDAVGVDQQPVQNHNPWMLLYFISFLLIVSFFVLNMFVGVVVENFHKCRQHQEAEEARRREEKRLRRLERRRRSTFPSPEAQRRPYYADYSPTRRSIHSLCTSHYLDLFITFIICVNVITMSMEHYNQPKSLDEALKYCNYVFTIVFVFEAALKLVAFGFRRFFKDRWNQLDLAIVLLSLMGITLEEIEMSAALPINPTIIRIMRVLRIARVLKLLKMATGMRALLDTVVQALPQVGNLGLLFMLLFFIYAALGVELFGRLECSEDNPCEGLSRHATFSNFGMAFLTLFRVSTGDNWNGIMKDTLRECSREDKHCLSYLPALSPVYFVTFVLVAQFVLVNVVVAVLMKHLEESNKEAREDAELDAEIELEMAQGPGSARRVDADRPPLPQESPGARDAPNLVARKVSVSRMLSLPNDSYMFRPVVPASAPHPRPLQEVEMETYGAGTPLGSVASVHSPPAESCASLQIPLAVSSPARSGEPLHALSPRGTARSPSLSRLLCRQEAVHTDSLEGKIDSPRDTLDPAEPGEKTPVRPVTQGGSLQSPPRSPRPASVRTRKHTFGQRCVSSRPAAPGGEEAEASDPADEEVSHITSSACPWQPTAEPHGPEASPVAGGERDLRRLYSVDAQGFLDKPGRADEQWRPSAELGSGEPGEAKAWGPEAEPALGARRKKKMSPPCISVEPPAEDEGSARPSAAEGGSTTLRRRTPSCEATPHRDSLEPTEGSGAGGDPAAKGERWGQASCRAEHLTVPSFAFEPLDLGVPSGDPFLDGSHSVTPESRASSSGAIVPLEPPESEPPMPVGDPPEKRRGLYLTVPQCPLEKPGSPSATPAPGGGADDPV
Chain of Paired box protein Pax-8 (Q06710 whole entry): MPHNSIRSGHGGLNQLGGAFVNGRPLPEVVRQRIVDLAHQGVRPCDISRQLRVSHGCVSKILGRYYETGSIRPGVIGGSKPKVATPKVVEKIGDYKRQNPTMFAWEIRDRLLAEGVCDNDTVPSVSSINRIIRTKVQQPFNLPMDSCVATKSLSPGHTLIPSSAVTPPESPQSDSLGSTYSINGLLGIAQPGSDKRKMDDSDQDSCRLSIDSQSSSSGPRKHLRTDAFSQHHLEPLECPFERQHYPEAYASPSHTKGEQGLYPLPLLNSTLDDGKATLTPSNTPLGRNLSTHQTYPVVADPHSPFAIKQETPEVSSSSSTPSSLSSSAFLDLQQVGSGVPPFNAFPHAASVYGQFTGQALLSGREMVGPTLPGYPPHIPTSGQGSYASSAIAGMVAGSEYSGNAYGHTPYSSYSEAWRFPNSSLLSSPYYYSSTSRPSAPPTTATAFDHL

Cc1ccc(C(=O)NCc2ccc3c(c2)OCO3)cc1S(=O)(=O)N1CCCCC1
EC50 [1]: 5.23 µM (active)

CCCCn1c(=O)c(C(=O)Nc2nnc(C(C)C)s2)c(O)c2ccccc21
IC50 (cells [2]): 5.24 µM (active)

C[C@@]1(CO)[C@H](O)CC[C@@]2(C)[C@H]1CC[C@H]1C[C@@H]3C[C@@]12CC[C@]3(O)CO [APHIDICOLIN]
EC50 [3]: > 150 µM (inconclusive)
EC50 (BJ [4]): > 150 µM (not active)
EC50 (BJ [5]): 28.6 µM (active)
EC50 (BJ [6]): 38.6 µM (active)
EC50 [7]: 1.73 µM (active)
EC50 [8]: 0.839 µM (active)

O=C(CCSc1ccc(Cl)c(Cl)c1)NC12CC3CC(CC(C3)C1)C2
EC50 [1]: 5.57 µM (active)

CCOC(=O)c1[nH]c2ccc(F)cc2c1NC(=O)CN1CCN(C/C=C/c2ccccc2)CC1
CC50 [9]: 8.01 µM (active)
CC50 [10]: 22.4 µM (active)

CCCCCCNC(=O)O[C@H]1Cn2c(=O)ccc(=O)n2[C@@H]2CN(S(=O)(=O)c3ccc(C)cc3)C[C@]12O
AC50 [11]: 14.1 µM (active)
CC50 (Vero): 24 µM (active)
AC50 [12]: 31.5 µM (active)
AC50 [13]: 19.1 µM (active)

Cc1ccccc1NC(=O)c1c(F)c(F)c(F)c(F)c1F
AC50 [14]: 29.3 µM (active)

C[C@@H]1CN([C@@H](C)CO)C(=O)Cc2cc(NC(=O)Nc3ccc(F)cc3)ccc2O[C@H]1CN(C)CC1CCCCC1
AC50 (Paired box protein Pax-8): 20.4 µM (active)
AC50 [15]: 10.9 µM (active)
AC50 [16]: 7.86 µM (active)

CCCCOC(=O)n1c(=O)oc2cc(S(=O)(=O)N3CCCCC3)ccc21
EC50 [1]: 4.48 µM (active)
EC50 (cells [17]): > 350 µM (not active)
EC50 (cells [18]): > 350 µM (not active)

O=C1/C(=C/c2ccc3c(c2)OCO3)Oc2cc(OCC(=O)N3CC(O)C[C@H]3C(=O)O)ccc21 (stereo partly specified)
AC50 [19]: 3.56 µM (active)

O=C(OCc1nnc(-c2ccccc2)o1)c1cc(S(=O)(=O)N2CCOCC2)c(Cl)cc1Cl
AC50 [14]: 10.8 µM (active)

Cc1ccc2[nH]c(/C(C#N)=C\c3cc(O)ccc3[N+](=O)[O-])nc2c1
AC50 [19]: 1.82 µM (active)

O=C(C1CCCC1)N1C[C@@H]2N[C@H](C1)[C@@H]2c1ccc(/C=C/c2ccccc2)cc1
AC50 [15]: 7.79 µM (active)
AC50 [16]: 4.23 µM (active)

COc1ccc(OC)c2sc(NC(=O)C3COc4ccccc4O3)nc12 (stereo unspecified)
EC50 [1]: 78 µM (active)

C=C1CCN([C@H](C(=O)OCc2cccc(C)c2)C(C)C)S(=O)(=O)c2ccccc21
AC50 [20]: 5.21 µM (active)
AC50 [21]: 4.76 µM (active)
AC50 [22]: 3.64 µM (active)
AC50 [23]: 1.99 µM (active)

O=C(CC(SCCO)c1ccc2c(c1)OCO2)c1ccco1 (stereo unspecified)
AC50 [19]: 0.563 µM (active)

O=C(N/N=C/c1ccc(OC(=O)c2cccs2)cc1)c1ccccn1
IC50 (cells [2]): 5.37 µM (active)

COc1ccc(C2=Nn3c(nnc3-c3ccccc3F)SC2)cc1OC1CCCC1
IC50 [24]: > 20 µM (inactive)
AC50 [25]: 6.06 µM (active)
CC50 [10]: 9.04 µM (active)

COc1ccccc1/C=C1/SC(=S)N(C(C)C(=O)NC2C=CS(=O)(=O)C2)C1=O (stereo unspecified)
AC50 [14]: > 60 µM (inactive)
EC50 [26]: 57.9 µM (active)

CCN1C(=O)/C(=C\N2CCN(c3ccc(F)cc3)CC2)SC1=S
EC50 [27]: > 120 µM (not active)
EC50 [3]: > 150 µM (not active)
EC50 [28]: > 120 µM (not active)
EC50 (BJ [4]): > 150 µM (not active)
EC50 (BJ [5]): > 150 µM (not active)
EC50 (BJ [6]): 81.2 µM (active)
EC50 [29]: 16.1 µM (active)

COCCCNC(=S)NNC(=O)c1ccccn1
AC50 [14]: 24.1 µM (active)
IC50 (Nonstructural protein 1): 2.32 µM (active)
IC50 [24]: > 20 µM (inactive)

O=C(N/N=C/c1ccc[nH]1)c1ccncc1
IC50 (cells [2]): 2.28 µM (active)

CC1CCCCN1C(=O)CSCC(=O)Nc1nc(-c2cccs2)cs1 (stereo unspecified)
EC50 [1]: 4.06 µM (active)

CC(C(=O)OCC(=O)Nc1ccc(S(=O)(=O)N2CCCCC2)cc1)N1C(=O)c2ccccc2C1=O (stereo unspecified)
EC50 [1]: 5.44 µM (active)

CC[C@@]1(C(=O)OC)N[C@H](CN(C)S(=O)(=O)c2ccc(-c3ccccc3)cc2)[C@@H]2C(=O)N(Cc3ccccc3)C(=O)[C@@H]21
AC50 [20]: 2.61 µM (active)
AC50 [21]: 2.54 µM (active)
AC50 [22]: 2.28 µM (active)
AC50 [23]: 2.09 µM (active)
